In brackets after ≈: the same amount, converted by molar mass. Like-named read-outs stand apart in the source and are kept apart here.
Columns and labels:
[1] = biological target: E. coli LpxC enzyme (Escherichia coli (strain K12), UniProt P0A725); experiment: Inhibitory activity on E. coli LpxC enzyme (fluorescamine assay); type: biochemical; conditions: Table 4
Procedure: Test 2: Evaluation of the Inhibitory Activity on E. coli LpxC Enzyme
An inhibition curve was constructed for each test compound by performing the aforementioned reaction at varying concentrations of the test compound. From this inhibition curve, the concentration of the test compound at which the formation of the reaction product was suppressed by 50% was determined as the IC50 of the test compound, which was an index for the inhibitory activity on E. coli LpxC enzyme.

[2] = test system: Klebsiella pneumoniae strain ATCC13883; experiment: Antimicrobial activity, MIC by broth microdilution; type: cell-based; conditions: Table 4, 35° C., 18 hours, read-out: Klebsiella pneumoniae ATCC 13883 strain MIC
Text: (§1) Test 3: Evaluation of Antimicrobial Activity For minimum inhibitory concentration (MIC) measurement, the following broth microdilution method was applied as adapted from the standard procedure recommended by the CLSI (Clinical and Laboratory Standards Institute). The bacteria used were Pseudomonas aeruginosa strain TS88 (clinical isolate), E. coli strain ATCC25922, and Klebsiella pneumoniae strain ATCC13883. After culture overnight on a heart infusion agar medium, the cells of a test bacterium were scraped off and suspended to give a turbidity of level 0.5 on the McFarland scale; the suspension was then diluted 10 fold to prepare an inoculum solution. A 0.005 mL aliquot of the inoculum solution was inoculated in a cation-adjusted Mueller-Hinton broth medium containing a test compound and cultured at 35° C. for 18 hours. A minimum drug concentration at which no cell growth was visible to the naked eye was designated as MIC.

[3] = test system: E. coli strain ATCC25922; experiment: Antimicrobial activity, MIC by broth microdilution; type: cell-based; conditions: Escherichia coli, Table 4, 35° C., 18 hours, read-out: E. coli ATCC 25922 strain MIC
Text: as §1

[4] = test system: Pseudomonas aeruginosa strain TS88 (clinical isolate); experiment: Antimicrobial activity, MIC by broth microdilution; type: cell-based; conditions: Table 4, 35° C., 18 hours, read-out: Pseudomonas aeruginosa TS88 strain MIC
Text: as §1

[5] = biological target: Pseudomonas aeruginosa LpxC enzyme (Pseudomonas aeruginosa (strain ATCC 15692 / DSM 22644 / CIP 104116 / JCM 14847 / LMG 12228 / 1C / PRS 101 / PAO1), UniProt P47205); experiment: biochemical; type: biochemical
[6] = Table 4, read-out: Pseudomonas aeruginosa LpxC IC50
[7] = class symbols A/B/C by IC50, Table 3, read-out: Enzyme inhibitory activity (inhibitory activity on Pseudomonas aeruginosa LpxC enzyme)
[8] = inhibitory activity on Pseudomonas aeruginosa LpxC enzyme, class symbols A/B/C, read-out: Enzyme inhibitory activity

E. coli LpxC enzyme, sequence (P0A725 whole entry): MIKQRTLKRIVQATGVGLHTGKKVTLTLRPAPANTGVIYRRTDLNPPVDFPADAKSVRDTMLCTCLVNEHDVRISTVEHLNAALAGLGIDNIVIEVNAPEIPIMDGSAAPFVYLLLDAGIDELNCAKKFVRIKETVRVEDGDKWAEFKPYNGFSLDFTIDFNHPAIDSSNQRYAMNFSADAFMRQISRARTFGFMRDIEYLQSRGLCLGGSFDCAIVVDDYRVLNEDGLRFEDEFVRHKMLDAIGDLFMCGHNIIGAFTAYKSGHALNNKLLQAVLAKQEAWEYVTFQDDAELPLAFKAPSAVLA

Row | Structure (SMILES) | IC50 [1] [nM] | MIC [2] [µg/mL] | MIC [3] [µg/mL] | MIC [4] [µg/mL] | IC50 [5, 6] [nM] | IC50 [5, 7] [nM] | IC50 [5] [nM] | IC50 [5, 8] [nM]
1 | CNC(=O)[C@@](C)(C(=O)NO)N(C)C(=O)c1ccc(C#Cc2ccc(CCN3CCOCC3)cc2)cc1 [Compound 410, (2S)-N-hydroxy-N′,2-dimethyl-2-(methyl {[4-({4-[2-(morpholin-4-yl)ethyl]phenyl}ethynyl)phenyl]carbonyl}amino)propanediamide] | 78 | 1 (≈ 2.03 µM) | 0.25 (≈ 0.508 µM) | 1 (≈ 2.03 µM) | – | – | – | –
2 | CCOC1CN(Cc2ccc(C#Cc3ccc(C(=O)N(C)[C@@](C)(C(=O)NC)C(=O)NO)cc3)cc2)C1 [Compound 557, (2S)-2-[{[4-({4-[(3-ethoxyazetidin-1-yl)methyl]phenyl}ethynyl)phenyl]carbonyl}(methyl)amino]-N-hydroxy-N′,2-dimethylpropanediamide] | 108 | 1 (≈ 2.03 µM) | 0.25 (≈ 0.508 µM) | 0.5 (≈ 1.02 µM) | 2.3 | < 10 | – | –
3 | CNC(=O)[C@@](C)(C(=O)NO)N(C)C(=O)c1ccc(C#Cc2coc(COC)c2)cc1 [Compound 550, (2S)-N-hydroxy-2-{[(4-{[5-(methoxymethyl)furan-3-yl]ethynyl}phenyl)carbonyl](methyl)amino}-N′,2-dimethylpropanediamide] | 12 | 1 (≈ 2.42 µM) | 0.25 (≈ 0.605 µM) | 0.5 (≈ 1.21 µM) | 1.6 | – | < 10 | –
4 | CNC(=O)C(C(=O)NO)N(C)C(=O)c1ccc(-c2ccc(C#CCOC)cc2)cc1 (centres unmarked) [Compound 405, N-hydroxy-2-[{[4′-(3-methoxyprop-1-yn-1-yl)biphenyl-4-yl]carbonyl}(methyl)amino]-N′-methylpropanediamide] | – | 4 (≈ 9.77 µM) | 0.5 (≈ 1.22 µM) | 0.5 (≈ 1.22 µM) | 2.9 | – | – | < 10
5 | CNC(=O)[C@@](C)(C(=O)NO)N(C)C(=O)c1ccc(C#Cc2coc(CNC3CC3)c2)cc1 [Compound 585, (2S)-2-[{[4-({5-[(cyclopropylamino)methyl]furan-3-yl}ethynyl)phenyl]carbonyl}(methyl)amino]-N-hydroxy-N′,2-dimethylpropanediamide] | 88 | 1 (≈ 2.28 µM) | 0.5 (≈ 1.14 µM) | 0.5 (≈ 1.14 µM) | 3.4 | < 10 | – | –
6 | CNC(=O)C(C(=O)NO)N(C)C(=O)c1ccc(C#Cc2ccc(CNC3CC3)cc2)cc1 (centres unmarked) [Compound 301, 2-[{[4-({4-[(Cyclopropylamino)methyl]phenyl}ethynyl)phenyl]carbonyl}(methyl)amino]-n-hydroxy-n′-methylpropanediamide] | 100 | 4 (≈ 9.21 µM) | 1 (≈ 2.3 µM) | 1 (≈ 2.3 µM) | 6.1 | – | – | < 10
7 | CNC(=O)[C@@](C)(C(=O)NO)N(C)C(=O)c1ccc(C#Cc2ccc(CNCc3ccco3)cc2)cc1 [Compound 417, (2S)-2-[({4-[(4-{[(furan-2-ylmethyl)amino]methyl}phenyl)ethynyl]phenyl}carbonyl)(methyl)amino]-N-hydroxy-N′,2-dimethylpropanediamide] | – | 0.25 (≈ 0.512 µM) | 0.0625 (≈ 0.128 µM) | 0.5 (≈ 1.02 µM) | – | – | – | –
8 | CNC(=O)[C@@](C)(C(=O)NO)N(C)C(=O)c1ccc(C#Cc2ccc(CN3CCC(OC)CC3)cc2)cc1 [Compound 565, (2S)-N-hydroxy-2-[{[4-({4-[(4-methoxypiperidin-1-yl)methyl]phenyl}ethynyl)phenyl]carbonyl}(methyl)amino]-N′,2-dimethylpropanediamide] | – | 2 (≈ 3.95 µM) | 0.5 (≈ 0.987 µM) | 1 (≈ 1.97 µM) | – | – | – | –
9 | CCOc1ccc(-c2ccc(C(=O)N(C)[C@@](C)(C(=O)NC)C(=O)NO)cc2)cc1 [Compound 399, (2S)-2-{[(4′-ethoxybiphenyl-4-yl)carbonyl](methyl)amino}-N-hydroxy-N′,2-dimethylpropanediamide] | 13 | 0.5 (≈ 1.25 µM) | 0.125 (≈ 0.313 µM) | 0.5 (≈ 1.25 µM) | – | – | – | –
10 | CNC(=O)[C@@](C)(C(=O)NO)N(C)C(=O)c1ccc(C#Cc2ccc(CN3CC(OCCF)C3)cc2)cc1 [Compound 559, (2S)-2-[({4-[(4-{[3-(2-fluoroethoxy)azetidin-1-yl]methyl}phenyl)ethynyl]phenyl}carbonyl)(methyl)amino]-N-hydroxy-N′,2-dimethylpropanediamide] | – | 1 (≈ 1.96 µM) | 0.25 (≈ 0.49 µM) | 1 (≈ 1.96 µM) | – | – | – | –
11 | CNC(=O)[C@@](C)(C(=O)NO)N(C)C(=O)c1ccc(-c2ccc3c(ccn3C)c2)cc1 [Compound 402, (2S)-N-hydroxy-N′,2-dimethyl-2-(methyl {[4-(1-methyl-1H-indol-5-yl)phenyl]carbonyl}amino)propanediamide] | 4.9 | 1 (≈ 2.45 µM) | 0.125 (≈ 0.306 µM) | 1 (≈ 2.45 µM) | – | – | – | –
12 | CNC(=O)[C@@](C)(C(=O)NO)N(C)C(=O)c1ccc(-c2ccc(SC)cc2)cc1 [Compound 406, (2S)-N-hydroxy-N′,2-dimethyl-2-(methyl {[4′-(methylsulfanyl)biphenyl-4-yl]carbonyl}amino)propanediamide] | – | 0.5 (≈ 1.25 µM) | 0.125 (≈ 0.311 µM) | 0.5 (≈ 1.25 µM) | – | – | – | –
13 | CCOC1CN(Cc2ccc(C#Cc3ccc(C(=O)N(C)C(C(=O)NC)C(=O)NO)cc3)cc2F)C1 (centres unmarked) [Compound 563, 2-[{[4-({4-[(3-ethoxyazetidin-1-yl)methyl]-3-fluorophenyl}ethynyl)phenyl]carbonyl}(methyl)amino]-N-hydroxy-N′-methylpropanediamide] | – | 4 (≈ 8.06 µM) | 1 (≈ 2.01 µM) | 1 (≈ 2.01 µM) | – | < 10 | – | –
14 | CNC(=O)[C@@](C)(C(=O)NO)N(C)C(=O)c1ccc(C#Cc2ccc(CN3CC4(COC4)C3)cc2)cc1 [Compound 416, (2S)-N-hydroxy-N′,2-dimethyl-2-{methyl[(4-{[4-(2-oxa-6-azaspiro[3.3]hept-6-ylmethyl)phenyl]ethynyl}phenyl)carbonyl]amino}propanediamide] | – | 2 (≈ 4.08 µM) | 0.5 (≈ 1.02 µM) | 1 (≈ 2.04 µM) | – | – | – | –
15 | CNC(=O)C(C(=O)NO)N(C)C(=O)c1ccc(C#CC#CC2CC2)cc1 (centres unmarked) [Compound 507, 2-({[4-(4-Cyclopropylbuta-1,3-diyn-1-yl)phenyl]carbonyl}(methyl)amino)-N-hydroxy-N′-methylpropanediamide] | 12 | 1 (≈ 2.83 µM) | 0.125 (≈ 0.354 µM) | 0.25 (≈ 0.707 µM) | – | – | – | –
16 | CNC(=O)[C@@](C)(C(=O)NO)N(C)C(=O)c1ccc(C#Cc2ccc(CN3CC(C)(OC)C3)cc2)cc1 [Compound 558, (2S)-N-hydroxy-2-[{[4-({4-[(3-methoxy-3-methylazetidin-1-yl)methyl]phenyl}ethynyl)phenyl]carbonyl}(methyl)amino]-N′,2-dimethylpropanediamide] | 235 | 2 (≈ 4.06 µM) | 0.5 (≈ 1.02 µM) | 1 (≈ 2.03 µM) | – | – | – | –
17 | CNC(=O)[C@@](C)(C(=O)NO)N(C)C(=O)c1ccc(C#Cc2ccc(CNCCF)cc2)cc1 [Compound 554, (2S)-2-[({4-[(4-{[(2-fluoroethyl)amino]methyl}phenyl)ethynyl]phenyl}carbonyl)(methyl)amino]-N-hydroxy-N′,2-dimethylpropanediamide] | 120 | 1 (≈ 2.2 µM) | 0.5 (≈ 1.1 µM) | 0.5 (≈ 1.1 µM) | – | – | – | –
18 | CNC(=O)[C@@](C)(C(=O)NO)N(C)C(=O)c1ccc(C#Cc2ccc(C3(NC)CC3)cc2)cc1 [Compound 435, (2S)-N-hydroxy-N′,2-dimethyl-2-(methyl {[4-({4-[1-(methylamino)cyclopropyl]phenyl}ethynyl)phenyl]carbonyl}amino)propanediamide] | – | 2 (≈ 4.46 µM) | 1 (≈ 2.23 µM) | 1 (≈ 2.23 µM) | – | – | – | –
19 | CNC(=O)[C@@](C)(C(=O)NO)N(C)C(=O)c1ccc(C#Cc2ccc(CNC3CC3)cc2)cc1 [Compound 553, (2S)-2-[{[4-({4-[(cyclopropylamino)methyl]phenyl}ethynyl)phenyl]carbonyl}(methyl)amino]-N-hydroxy-N′,2-dimethylpropanediamide] | – | 0.5 (≈ 1.11 µM) | 0.25 (≈ 0.557 µM) | 0.5 (≈ 1.11 µM) | – | – | – | –
20 | CNC(=O)[C@@](C)(C(=O)NO)N(C)C(=O)c1ccc(C#Cc2ccc(CN3CCOCC3)cc2)cc1 [Compound 561, (2S)-N-hydroxy-N′,2-dimethyl-2-{methyl[(4-{[4-(morpholin-4-ylmethyl)phenyl]ethynyl}phenyl)carbonyl]amino}propanediamide] | 30 | 0.5 (≈ 1.04 µM) | 0.125 (≈ 0.261 µM) | 0.5 (≈ 1.04 µM) | – | – | – | –
21 | CNC(=O)[C@@](C)(C(=O)NO)N(C)C(=O)c1ccc(C#Cc2ccc(CN3CC(OC)C3)cc2)cc1 [Compound 567, (2S)-N-hydroxy-2-[{[4-({4-[(3-methoxyazetidin-1-yl)methyl]phenyl}ethynyl)phenyl]carbonyl}(methyl)amino]-N′,2-dimethylpropanediamide] | 177 | 2 (≈ 4.18 µM) | 0.5 (≈ 1.04 µM) | 1 (≈ 2.09 µM) | – | – | – | –
